Experiment: Gravity vapor sorption (GVS) analysis
Type: physicochemical
[1] = at relative humidity (RH) of 80%

SMILES: CC(C)[C@H](N)C(=O)N[C@H]1CN[C@]2(CCCCB(O)OC2=O)C1 [Example 1, (S)-2-amino-N-((3R,5R)-8-hydroxy-6-oxo-7-oxa-1-aza-8-boraspiro[4.7]dodecan-3-yl)-3-methylbutanamide]
- RH after which the solid starts to deliquesce (GVS): > 80 % RH
- water absorbed (GVS) (at relative humidity (RH) of 70%): less than 2%

SMILES: CC(C)[C@H](N)C(=O)N[C@H]1CN[C@]2(CCCCB(O)OC2=O)C1 [Example 3, (S)-2-amino-N-((3R,5R)-8-hydroxy-6-oxo-7-oxa-1-aza-8-boraspiro[4.7]dodecan-3-yl)-3-methylbutanamide]
- water absorbed (GVS) [1]: less than 2%

SMILES: CC(C)[C@@H]1NC(C)(C)N([C@H]2CN[C@]3(CCCCB(O)OC3=O)C2)C1=O [Example 2, (3R,5R)-8-hydroxy-3-((S)-4-isopropyl-2,2-dimethyl-5-oxoimidazolidin-1-yl)-7-oxa-1-aza-8-boraspiro[4.7]dodecan-6-one]
- water absorbed (GVS) [1]: less than 2%
